# Measurements taken from US9199941B2, “Pyrazole indanyl carboxamides” (BAYER CROPSCIENCE AG, priority 2012, dated 2015).
# Several values for one entry are separate records, joined by “and”; a condition that tells them apart may be missing. Equal values may be shown once. Read-outs that look alike come from different tables or passages of the source.
# How the values were obtained:
# [1] = log P by HPLC on reversed phase columns (EEC directive 79/831 Annex V.A8); format: physicochemical
# Puccinia recondita = assay: In vivo preventive test on Puccinia recondita (brown rust on wheat); settings: preventive spray, wheat plants, grading 12 days after contamination
# Experimental: Plants, used as controls, are treated with the mixture of acetone/tween/DMSO/water not containing the active material. After 24 hours, the plants are contaminated by spraying the leaves with an aqueous suspension of Puccinia […] spores (100 000 spores per ml). […] Grading (% of efficacy) is carried out 12 days after the contamination, in comparison with the control plants.
# Sphaerotheca fuliginea = assay: In vivo preventive test on Sphaerotheca fuliginea (powdery mildew on cucurbits); settings: preventive spray, gherkin plants, grading 12 days after contamination
# Experimental: Gherkin plants (“Vert petit de Paris” variety), sown in starter cups on a 50/50 peat soil-pozzolana substrate and grown at 24° C., are treated at the Z11 cotyledon stage by spraying with the active ingredient prepared as described above. Plants, used as controls, are treated with the mixture of acetone/tween/DMSO/water not containing the active material. After 24 hours, the plants are contaminated by spraying the cotyledons with an aqueous suspension of Sphaerotheca fuliginea spores (100 000 spores per ml). The spores are collected from infected plants. The contaminated gherkin plants are incubated at about 20° C. and at 70-80% relative humidity. Grading (% of efficacy) is carried out 12 days after the contamination, in comparison with the control plants.
# Uromyces appendiculatus = assay: In vivo preventive test on Uromyces appendiculatus (bean rust); settings: preventive spray, bean plants, grading 11 days after contamination
# Experimental: Bean plants (“Saxa” variety), sown in starter cups on a 50/50 peat soil-pozzolana substrate and grown at 24° C., are treated at the 2-leaf stage (9 cm height) by spraying with the active ingredient prepared as described above. Plants, used as controls, are treated with the mixture of acetone/tween/DMSO/water not containing the active material. After 24 hours, the plants are contaminated by spraying the leaves with an aqueous suspension of Uromyces appendiculatus spores (150 000 spores per ml). […] Grading (% of efficacy) is carried out 11 days after the contamination, in comparison with the control plants.
# Septoria tritici = assay: In vivo preventive test on Septoria tritici (leaf spot on wheat); settings: 500 ppm, preventive spray, wheat plants, grading 24 days after contamination
# Experimental: Wheat plants (“Scipion” variety), sown in starter cups on a 50/50 peat soil-pozzolana substrate and grown at 22° C., are treated at the 1-leaf stage (10 cm height) by spraying with the active ingredient prepared as described above. Plants, used as controls, are treated with the mixture of acetone/tween/DMSO/water not containing the active material. After 24 hours, the plants are contaminated by spraying the leaves with an aqueous suspension of cryopreserved Septoria tritici spores (500 000 spores per ml). […] Grading (% of efficacy) is carried out 24 days after the contamination, in comparison with the control plants.
# Pyrenophora teres = assay: In vivo preventive test on Pyrenophora teres (net blotch on barley); settings: 500 ppm, preventive spray, barley plants, incubated 48 hours then 12 days
# Experimental: Barley plants (“Plaisant” variety), sown in starter cups on a 50/50 peat soil-pozzolana substrate and grown at 22° C., are treated at the 1-leaf stage (10 cm height) by spraying with the active ingredient prepared as described above. Plants, used as controls, are treated with the mixture of acetone/tween/DMSO/water not containing the active material. After 24 hours, the plants are contaminated by spraying the leaves with an aqueous suspension of Pyrenophora teres spores (12 000 spores per ml). The spores are collected from a 12-day-old culture.
# [2] = Table 2, amines of formula (III-a), method [a]: LC-MS at pH 2.7, 0.1% formic acid in water / acetonitrile
# [3] = Table 1, compounds of formula (I), method [a]: LC-MS at pH 2.7, 0.1% formic acid in water / acetonitrile
"logP [1, 2]","logP [1, 3]",Compound,Eff. % (Puccinia recondita; 500 ppm),Eff. % (Uromyces appendiculatus; 500 ppm),further results
,3.6[a],CC(C)C1CCc2c(NC(=O)c3cn(C)nc3C(F)F)cccc21 (centres unmarked) [Example 2],98%,100%,Eff. % (Sphaerotheca fuliginea; 500 ppm): 94%
,3.5[a],CC1CC2(CC2(Cl)Cl)c2cccc(NC(=O)c3cn(C)nc3C(F)F)c21 (centres unmarked) [Example 4],100%,100%,Eff. % (Septoria tritici): 100%; Eff. % (Sphaerotheca fuliginea; 500 ppm): 100%
,3.33[a],Cn1cc(C(=O)Nc2cccc3c2CCC32CC2(Cl)Cl)c(C(F)F)n1 (centres unmarked) [Example 5],,100%,Eff. % (Septoria tritici): 71%; Eff. % (Sphaerotheca fuliginea; 500 ppm): 100%
,2.57[a],Cc1nn(C)c(C)c1C(=O)Nc1cccc2c1CCC21CC1 [Example 13],89%,100%,
,2.96[a],Cn1cc(C(=O)Nc2cccc3c2CCC32CC2)c(C(F)F)n1 [Example 17],98%,100%,Eff. % (Pyrenophora teres): 70%
,3.59[a],CCCCON=C1CCc2c(NC(=O)c3cn(C)nc3C(F)F)cccc21 [Example 21],,,Eff. % (Septoria tritici): 70%
,2.59[a],CON=C1CCc2c(NC(=O)c3cn(C)nc3C(F)F)cccc21 [Example 23],94%,,
,2.04[a],Cc1nn(C)c(O)c1C(=O)Nc1cccc2c1CCC21CC1 [Example 26],,,Eff. % (Septoria tritici): 71%
,3.94[a],Cn1cc(C(=O)Nc2cccc3c2CCC3C(C)(C)C)c(C(F)F)n1 (centres unmarked) [Example 28],100%,100%,Eff. % (Septoria tritici): 86%; Eff. % (Sphaerotheca fuliginea; 500 ppm): 100%
,3.15[a],CCCON=C1CCc2c(NC(=O)c3cn(C)nc3C(F)F)cccc21 [Example 30],71%,95%,Eff. % (Septoria tritici): 85%; Eff. % (Sphaerotheca fuliginea; 500 ppm): 90%
,4.11[a],CC(C)CC1CCc2c(NC(=O)c3cn(C)nc3C(F)F)cccc21 (centres unmarked) [Example 32],98%,100%,Eff. % (Septoria tritici): 71%; Eff. % (Sphaerotheca fuliginea; 500 ppm): 98%
,2.8[a],Cn1cc(C(=O)Nc2cccc3c2C(C)(C)CC3)c(C(F)F)n1 [Example 36],,,
,1.61[a],Cn1cc(C(=O)Nc2cccc3c2CCC3O)c(C(F)F)n1 (centres unmarked) [Example 37],,,
,4.31[a],CC1CC2(CCCC2)c2cccc(NC(=O)c3cn(C)nc3C(F)F)c21 (centres unmarked) [Example 49],,,Eff. % (Puccinia recondita; 100 ppm): 89%
,3.01[a],CC1CCc2c(NC(=O)c3cn(C)nc3C(F)F)cccc21 (centres unmarked) [Example 50],,,Eff. % (Puccinia recondita; 100 ppm): 78%
,2.99[a],CCc1nn(C)cc1C(=O)Nc1cccc2c1C(C)CC21CC1 (centres unmarked) [Example 51],,,
,3.29[a],CC(C)c1nn(C)cc1C(=O)Nc1cccc2c1C(C)CC21CC1 (centres unmarked) [Example 56],,,

# More lines, now with the values behind:
Compound,"logP [1, 2]","logP [1, 3]",Eff. % (Puccinia recondita; 500 ppm),Eff. % (Uromyces appendiculatus; 500 ppm),further results
CC1CC2(CC2(Cl)Cl)c2cccc(N)c21 (mixture of isomers) [Example III-a-1],3.04 and 2.94,,,,
CC1CC2(CC2)c2cccc(NC(=O)c3cn(C)nc3C(F)(F)F)c21 (centres unmarked) [Example 10],,3.35[a],100%,99%,
Cc1nn(C)c(C)c1C(=O)Nc1cccc2c1C(C)CC2CC(C)C (centres unmarked) [Example 14],,3.87[a],98%,99%,
Cc1nn(C)c(F)c1C(=O)Nc1cccc2c1CCC21CC1 [Example 15],,,94%,100%,
Cc1nn(C)c(C)c1C(=O)Nc1cccc2c1C(C)CC2C(C)(C)C (centres unmarked) [Example 16],,4.13[a],98%,100%,
"Cc1nn(C)c(C)c1C(=O)Nc1cccc2c1C(C)CC21CC1 (centres unmarked) [Example 22, 1,3,5-trimethyl-N-(3′-methyl-2′,3′-dihydrospiro[cyclopropane-1,1′-inden]-4′-yl)-1H-pyrazole-4-carboxamide]",,,81%,100%,chromatographic logP ([1]; pH 2.7): 2.7
CCON=C1CC(C)c2c(NC(=O)c3c(C)nn(C)c3F)cccc21 (centres unmarked) [Example 29],,2.76[a],81%,80%,Eff. % (Pyrenophora teres): 75%
CON=C1CC(C)c2c(NC(=O)c3cn(C)nc3C(F)F)cccc21 (centres unmarked) [Example 31],,2.45[a],,99%,Eff. % (Septoria tritici): 79%
Cc1nn(C)c(F)c1C(=O)Nc1cccc2c1C(C)CC2CC(C)(C)C (centres unmarked) [Example 35],,4.61[a],98%,100%,Eff. % (Sphaerotheca fuliginea; 500 ppm): 100%
"Cc1nn(C)c(C)c1C(=S)Nc1cccc2c1C(C)CC21CC1 (centres unmarked) [Example 39, 1,3,5-trimethyl-N-(3′-methyl-2′,3′-dihydrospiro[cyclopropane-1,1′-inden]-4′-yl)-1H-pyrazole-4-carbothioamide]",,,89%,100%,chromatographic logP ([1]; pH 2.7): 3.06
Cc1nn(C)c(C)c1C(=S)Nc1cccc2c1C(C)CC2CC(C)C (centres unmarked) [Example 40],,4.25[a],98%,100%,
Cc1nn(C)c(F)c1C(=S)Nc1cccc2c1C(C)CC2CC(C)(C)C (centres unmarked) [Example 43],,4.87[a],98%,100%,Eff. % (Sphaerotheca fuliginea; 500 ppm): 100%
CC1CC2(CC2)c2cccc(NC(=O)c3c(C4CC4)nn(C)c3Cl)c21 (centres unmarked) [Example 45],,4.04[a],,,
Cc1nn(C)c(Cl)c1C(=O)Nc1cccc2c1C(C)CC21CC1 (centres unmarked) [Example 47],,3.44[a],,,Eff. % (Puccinia recondita; 100 ppm): 95%; Eff. % (Uromyces appendiculatus; 100 ppm): 100%
Cc1c(C(=O)Nc2cccc3c2C(C)CC32CC2)cnn1C (centres unmarked) [Example 48],,2.55[a],,,Eff. % (Puccinia recondita; 100 ppm): 98%; Eff. % (Sphaerotheca fuliginea; 100 ppm): 81%; Eff. % (Uromyces appendiculatus; 100 ppm): 100%
CCc1c(C(=O)Nc2cccc3c2C(C)CC32CC2)cnn1C (centres unmarked) [Example 54],,2.99[a],,,
CC1CC2(CC2)c2cccc(NC(=O)c3c(C(F)(F)F)nn(C)c3F)c21 (centres unmarked) [Example 55],,3.72[a],,,Eff. % (Puccinia recondita; 100 ppm): 85%

Compound,"logP [1, 2]","logP [1, 3]",Eff. % (Puccinia recondita; 500 ppm),Eff. % (Uromyces appendiculatus; 500 ppm),further results
Nc1cccc2c1CCC21CC1 [Example III-a-2],1.37[a],,,,
CC1CC(C(C)C)c2cccc(N)c21 (centres unmarked) [Example III-a-11],2.73[a],,,,
CC1CC(C(C)C)c2cccc(N)c21 (centres unmarked) [Example III-a-12],2.86[a],,,,
CC(C)CC1CCc2c(N)cccc21 (centres unmarked) [Example III-a-14],2.64[a],,,,
"CC1CC2(CC2)c2cccc(N)c21 (centres unmarked) [Example III-a-16, 3′-methyl-2′,3′-dihydrospiro[cyclopropane-1,1′-inden]-4′-amine]",,,,,"chromatographic logP ([1]; reversed phase HPLC columns, Table 2, amines of formula (III-a), method [a]: LC-MS at pH 2.7, 0.1% formic acid in water / acetonitrile, read-out: logP): 1.93"
CCC1(C)CCc2c(N)cccc21 (centres unmarked) [Example III-a-17],1.88[a],,,,
CCCON=C1CC(C)c2c(N)cccc21.Cl (centres unmarked) [Example III-a-18],2.78[a],,,,
CCON=C1CC(C)c2c(N)cccc21.Cl (centres unmarked) [Example III-a-19],2.26[a],,,,
CC(C)(C)C1CCc2c(N)cccc21 (centres unmarked) [Example III-a-21],2.4[a],,,,
CC1CC(CC(C)(C)C)c2cccc(N)c21 (centres unmarked) [Example III-a-22],3.83[a],,,,
CC(C)CC1CC(C)c2c(N)cccc21 (centres unmarked) [Example III-a-23],3.42[a],,,,
CCCON=C1CCc2c(N)cccc21.Cl [III-a-7],2.26[a],,,,
CCCCON=C1CCc2c(N)cccc21.Cl [III-a-8],2.86[a],,,,
CON=C1CCc2c(N)cccc21.Cl [III-a-9],1.26[a],,,,
CCON=C1CCc2c(N)cccc21.Cl [III-a-10],1.75[a],,,,
CC1CC(C)c2c(N)cccc21 (centres unmarked) [III-a-15],1.76[a],,,,
CON=C1CC(C)c2c(N)cccc21.Cl (centres unmarked) [III-a-20],1.76[a],,,,
